Results on 34 molecules are retold here after patent publication US6969711B2, “Cyclic diamine compounds and medicine containing the same” (Kowa Company, Ltd., priority 1997, dated 2005).

For the molecule `COC(=O)c1ccc2nc(SCCN3CCN(CC(=O)Nc4c(C(C)C)cccc4C(C)C)CC3)oc2c1C(=O)OC` [Example 99, 2-[4-[2-(6,7-bis(methoxycarbonyl)benzoxazol-2-ylthio]ethyl]piperazin-1-yl]-N-(2,6-diisopropylphenyl)acetamide], the melting point (commonly the temperature, or range, at which the solid turns liquid) was in the range of 186 to 187 °C. As to `Cc1cc(SC(C)C)c(NC(=O)CN2CCN(CCSc3nc4ccccc4s3)CC2)c(SC(C)C)n1.Cl.Cl`, the melting point lay in the range of 139 to 142 °C. In turn, `CC(C)c1cccc(C(C)C)c1NC(=O)CN1CCN(CCCSc2nc3ccccc3s2)CC1` [Example 8, 2-[4-[3-(benzothiazol-2-ylthio)propyl]piperazin-1-yl]-N-(2,6-diisopropylphenyl)acetamide] gave a melting point of 113 to 115 °C. The value for `CC(C)c1cccc(C(C)C)c1NC(=O)CN1CCN(CCSc2nc3ccccc3[nH]2)CC1` [Example 3, 2-[4-[2-(benzimidazol-2-ylthio)ethyl]-piperazin-1-yl]-N-(2,6-diisopropylphenyl)acetamide] was 207 °C (dec.).

As to `Cc1ccc(C(C)C)c2oc(SCCN3CCN(CC(=O)Nc4c(C(C)C)cccc4C(C)C)CC3)nc12` [Example 122, 2-[4-[2-(7-isopropyl-4-methylbenzoxazol-2-ylthio)ethyl]piperazin-1-yl]-N-(2,6-diisopropylphenyl)acetamide], the melting point was in the range of 133 to 134 °C. The molecule `CC(C)c1ccc(O)c(C(C)C)c1NC(=O)CN1CCN(CCSc2nc3cccc(C(F)(F)F)c3o2)CC1` [Example 130, 2-[4-[2-(7-trifluoromethylbenzoxazol-2-ylthio)ethyl]piperazin-1-yl]-N-(2,6-diisopropyl-3-hydroxyphenyl)acetamide] yielded a melting point of 82 to 84 °C.

`CC(C)c1cc(C(C)C)c(NC(=O)CN2CCN(CCCSc3nc4ccccc4s3)CC2)c(C(C)C)c1` [Example 55, 2-[4-[3-(benzothiazol-2-ylthio)propyl]piperazin-1-yl]-N-(2,4,6-triisopropylphenyl)acetamide] gave a melting point of 107 to 108 °C. As for `CC(=O)c1cccc2nc(SCCCN3CCCN(CC(=O)Nc4c(C(C)C)cccc4C(C)C)CC3)oc12` [Example 94, 2-[4-[3-(7-acetylbenzoxazol-2-ylthio)propyl]homopiperazin-1-yl]-N-(2,6-diisopropylphenyl)acetamide], the melting point lay in the range of 86 to 88 °C. Next, `CC(C)c1ccc(OS(C)(=O)=O)c(C(C)C)c1NC(=O)CN1CCN(CCSc2nc3ccccc3o2)CC1` [Example 62, 2-[4-[2-(benzoxazol-2-ylthio)ethyl]-piperazin-1-yl]-N-(2,6-diisopropyl-3-mesyloxyphenyl)acetamide]: 164 to 166 °C (dec.); `CCCCCCCN(CCN1CCN(CCSc2nc3cccc(C(=O)OC)c3o2)CC1)C(=O)Nc1c(C(C)C)cccc1C(C)C` [Example 17, N′-(2,6-diisopropylphenyl)-N-heptyl-N-[2-[4-[2-(7-methoxycarbonylbenzoxazol-2-ylthio)-ethyl]piperazin-1-yl]ethyl]urea]: 125 to 126 °C; `CC(C)c1cccc(C(C)C)c1NC(=O)CN1CCN(CCSc2nc3cccc([N+](=O)[O-])c3o2)CC1` [Example 104, 2-[4-[2-(7-nitrobenzoxazol-2-ylthio)ethyl]-piperazin-1-yl]-N-(2,6-diisopropylphenyl)acetamide]: 153 to 155 °C.

`CCOP(=O)(OCC)Oc1cc(C(C)C)c(NC(=O)CN2CCN(CCSc3nc4ccccc4o3)CC2)c(C(C)C)c1` returned a melting point of 108 to 109 °C. Next, `CCCCCCCN(CCN1CCN(CCSc2nc3ncccc3o2)CC1)C(=O)Nc1c(C(C)C)cc(O)cc1C(C)C` [Example 139, N′-(2,6-diisopropyl-4-hydroxyphenyl)-N-heptyl-N-[2-[4-[2-(oxazolo[4,5-b]pyridin-2-ylthio)ethyl]piperazin-1-yl]ethyl]urea]: 100 to 102 °C; `CCCCCCCN(CCN1CCN(CCCSc2nc3ccccc3o2)CC1)C(=O)Nc1c(SC)cc(C)nc1SC.Cl.Cl`: 208 to 210 °C.

Turning to `CSc1cc(C)nc(SC)c1NC(=O)CCN1CCN(CCSc2nc3ccccc3o2)CC1` [Example 27, 3-[4-[2-(benzoxazol-2-ylthio)ethyl]piperazin-1-yl]-N-[2,4-bis(methylthio)-6-methyl-3pyridyl]propanamide], the melting point was in the range of 110 to 112 °C. For the molecule `CC(C)c1cccc(C(C)C)c1NC(=O)CN1CCN(CCSc2nc3cccc([S+](C)[O-])c3o2)CC1` (stereo not shown) [Example 121, 2-[4-[2-(7-methanesulfinylbenzoxazol-2-ylthio)ethyl]piperazin-1-yl]-N-(2,6-diisopropylphenyl)acetamide], the melting point was 119 to 120 °C. The value for `CC(C)c1ccc([N+](=O)[O-])c(C(C)C)c1NC(=O)CN1CCN(CCCSc2nc3ccccc3o2)CC1` [Example 67, 2-[4-[3-(benzoxazol-2-ylthio)propyl]piperazin-1-yl]-N-(2,6-diisopropyl-3-nitrophenyl)acetamide] was 156 to 158 °C; that for `CCSc1cc(C)nc(SCC)c1NC(=O)CN1CCN(CCSc2nc3ccccc3o2)CC1` [Example 34, 2-[4-[2-(benzoxazol-2-ylthio)ethyl]piperazin-1-yl]-N-[2,4-bis(ethylthio)-6-methyl-3-pyridyl]acetamide] was 108 to 109 °C. The value for `COC(=O)c1cccc2nc(SCCCN3CCN(CC(=O)Nc4c(SC)cc(C)nc4SC)CC3)oc12` [Example 30, N-[2,4-bis(methylthio)-6-methyl-3pyridyl)-2-[4-[3-(7-methoxycarbonylbenzoxazol-2-ylthio)propyl]piperazin-1-yl]acetamide] was 76 to 79 °C. The value for `CC(C)c1cc(O)cc(C(C)C)c1NC(=O)CN1CCN(CCCSc2nc3ccccc3o2)CC1` [Example 118, 2-[4-[3-(benzoxazol-2-ylthio)propyl]piperazin-1-yl]-N-(2,6-diisopropyl-4-hydroxyphenyl)acetamide] was 201 to 203 °C. On to `COc1cc(C(C)C)c(NC(=O)CN2CCN(CCSc3nc4cccc(C(C)=O)c4o3)CC2)c(C(C)C)c1` [Example 93, 2-[4-[2-(7-acetylbenzoxazol-2-ylthio)ethyl]piperazin-1-yl]-N-(2,6-diisopropyl-4-methoxyphenyl)acetamide], for which the melting point was 185 to 186 °C. The value for `CC(C)c1cc(CO)cc(C(C)C)c1NC(=O)CN1CCN(CCSc2nc3cccc(C(F)(F)F)c3o2)CC1` [Example 140, 2-[4-[2-(7-trifluoromethylbenzoxazol-2-ylthio)ethyl]piperazin-1-yl]-N-[2,6-diisopropyl-4-hydroxymethylphenyl]acetamide] was 146 to 148 °C. Next, `CCCCCCCN(CCN1CCN(CCSc2nc3ccccc3[nH]2)CC1)C(=O)Nc1c(SCC)cc(C)nc1SCC.Cl.Cl`: 134 to 137 °C; `Cc1cc(SC(C)C)c(NC(=O)CN2CCN(CCSc3nc4ccccc4[nH]3)CC2)c(SC(C)C)n1` [Example 37, 2-[4-[2-(benzimidazol-2-ylthio)ethyl]piperazin-1-yl]-N-(2,4-bis(isopropylthio)-6-methyl-3-pyridyl)acetamide]: 186 to 188 °C; `CSc1cc(C)nc(SC)c1NC(=O)CN1CCN(CCSc2nc3ccccc3s2)CC1` [Example 31, 2-[4-[2-(benzothiazol-2-ylthio)ethyl]piperazin-1-yl]-N-(2,4-bis(methylthio)-6-methyl-3-pyridyl)acetamide]: 136 to 139 °C.

The molecule `CC(C)c1cccc(C(C)C)c1NC(=O)CN1CCN(CCCSc2nc3ncccc3o2)CC1` [Example 12, 2-[4-[3-(oxazolo[4,5-b]pyridine-2-ylthio)propyl]piperazin-1-yl]-N-(2,6-diisopropylphenyl)acetamide] yielded a melting point of 125 to 127 °C. Next, `CC(C)c1cccc(C(C)C)c1NC(=O)CN1CCCN(CCCSc2nc3ncccc3o2)CC1` [Example 15, 2-[4-[3-(oxazolo[4,5-b]pyridin-2-ylthio)propyl]homopiperazin-1-yl]-N-(2,6-diisopropylphenyl)acetamide]: 73 to 75 °C; `COc1cc(C(C)C)c(NC(=O)CN2CCN(CCSc3nc4cccc(C(F)(F)F)c4o3)CC2)c(C(C)C)c1` [Example 86, 2-[4-[2-(7-trifluoromethylbenzoxazol-2-ylthio)ethyl]piperazin-1-yl]-N-(2,6-diisopropyl-4-methoxyphenyl)acetamide]: 122 to 123 °C; `COC(=O)c1cccc2oc(SCCCN3CCN(CC(=O)Nc4c(C(C)C)cccc4C(C)C)CC3)nc12` [Example 11, 2-[4-[3-(4-methoxycarbonylbenzoxazol-2-ylthio)propyl]piperazin-1-yl]-N-(2,6-diisopropylphenyl)acetamide]: 132 to 133 °C. The value for `CC(C)c1cccc(C(C)C)c1NC(=O)CN1CCCN(CCCSc2nc3cccc(C(F)(F)F)c3o2)CC1` [Example 91, 2-[4-[3-(7-trifluoromethylbenzoxazol-2-ylthio)propyl]homopiperazin-1-yl]-N-(2,6-diisopropylphenyl)acetamide] was 77 to 79 °C. Molecule `CC(C)c1cccc(C(C)C)c1NC(=O)CCN1CCN(CCCSc2nc3ccccc3o2)CC1` [Example 23, 3-[4-[3-(benzoxazol-2-ylthio)propyl]piperazin-1-yl]-N-(2,6-diisopropylphenyl)propanamide] gave a melting point of 93 to 95 °C. The molecule `COC(=O)c1cccc2nc(SCCCN3CCCN(CC(=O)Nc4c(C(C)C)cccc4C(C)C)CC3)oc12` [Example 14, 2-[4-[3-(7-methoxycarbonylbenzoxazol-2-ylthio)propyl]homopiperazin-1-yl]-N-(2,6-diisopropylphenyl)acetamide] yielded a melting point of 83 to 85 °C. The value for `COc1cc(C)nc(OC)c1NC(=O)CN1CCN(CCSc2nc3ccccc3o2)CC1` [Example 45, 2-[4-[2-(benzoxazol-2-ylthio)ethyl]piperazin-1-yl]-N-[2,4-dimethoxy-6-methyl-3-pyridyl)acetamide] was 113 to 115 °C. Consider `CC(C)c1cc([N+](=O)[O-])c(O)c(C(C)C)c1NC(=O)CN1CCN(CCSc2nc3ccccc3o2)CC1` [Example 66, 2-[4-[2-(benzoxazol-2-ylthio)ethyl]piperazin-1-yl]-N-(2,6-diisopropyl-3-hydroxy-4-nitrophenyl)acetamide], for which the melting point fell in the range of 139 to 141 °C.
